# Measurements from patent US12604895B2, “Pesticidally active cyclic amine compounds” (SYNGENTA CROP PROTECTION AG, priority 2020, dated 2026).
# Legend:
# Assay type in all cases: in vivo
# [1] = system: Tetranychus urticae (Two-Spotted Spider Mite); experiment: Example B5: Tetranychus urticae (Two-Spotted Spider Mite), feeding/contact activity; conditions: foliar, 192 h, application rate of 200 ppm, mixed population (mobile stages) on sprayed bean leaf discs, 8 days after infestation
# Procedure: Example B5: Tetranychus urticae (Two-Spotted Spider Mite): Feeding/Contact Activity
# Bean leaf discs on agar in 24-well microtiter plates were sprayed with aqueous test solutions prepared from 10′000 ppm DMSO stock solutions. After drying the leaf discs were infested with a mite population of mixed ages. The samples were assessed for mortality on mixed population (mobile stages) 8 days after infestation.
# [2] = system: Euschistus heros (Neotropical Brown Stink Bug); experiment: Example B2: Euschistus heros (Neotropical Brown Stink Bug), sprayed soybean leaves; conditions: 120 h, application rate of 200 ppm, N2 nymphs on sprayed soybean leaves, 5 days after infestation, read-out: control in at least one of the two categories (mortality or growth inhibition)
# Procedure: Example B2: Euschistus heros (Neotropical Brown Stink Bug)
# Soybean leaves on agar in 24-well microtiter plates were sprayed with aqueous test solutions prepared from 10′000 ppm DMSO stock solutions. After drying the leaves were infested with N2 nymphs. The samples were assessed for mortality and growth inhibition in comparison to untreated samples 5 days after infestation.
# The following compounds gave an effect of at least 80% control in at least one of the two categories (mortality or growth inhibition) at an application rate of 200 ppm: P2.1., P8.1
# [3] = system: Plutella xylostella (Diamond Back Moth); experiment: Example B3: Plutella xylostella (Diamond Back Moth), artificial diet; conditions: 192 h, application rate of 200 ppm, eggs, treated artificial diet, 8 days after infestation, read-out: control in at least one of the two categories (mortality or growth inhibition)
# Procedure: Example B3: Plutella xylostella (Diamond Back Moth)
# 24-well microtiter plates with artificial diet were treated with aqueous test solutions prepared from 10′000 ppm DMSO stock solutions by pipetting. After drying, Plutella eggs were pipetted through a plastic stencil onto a gel blotting paper and the plate was closed with it. The samples were assessed for mortality and growth inhibition in comparison to untreated samples 8 days after infestation. The following compounds gave an effect of at least 80% control in at least one of the two categories (mortality or growth inhibition) at an application rate of 200 ppm: P1.2, P1.15, P1.51, P2.1, P2.2, P2.5, P2.10, P2.15, P2.16, P5.1, P5.2, P5.3, P7.1, P8.1
# [4] = system: Diabrotica balteata (Corn Root Worm); experiment: Example B1: Diabrotica balteata (Corn Root Worm), sprayed maize sprouts; conditions: 96 h, application rate of 200 ppm, L2 larvae on sprayed maize sprouts, 4 days after infestation, read-out: control in at least one of the two categories (mortality or growth inhibition)
# Procedure: Example B1: Diabrotica balteata (Corn Root Worm)
# Maize sprouts placed onto an agar layer in 24-well microtiter plates were treated with aqueous test solutions prepared from 10′000 ppm DMSO stock solutions by spraying. After drying, the plates were infested with L2 larvae (6 to 10 per well). The samples were assessed for mortality and growth inhibition in comparison to untreated samples 4 days after infestation.
# The following compounds gave an effect of at least 80% control in at least one of the two categories (mortality or growth inhibition) at an application rate of 200 ppm: P1.2, P2.1, P2.2, P2.5, P2-17, P3.4, P7.1, P8.1
Compound,mortality at 200 ppm [1],percent control (mortality or growth inhibition) at 200 ppm [2],percent control (mortality or growth inhibition) at 200 ppm [3],percent control (mortality or growth inhibition) at 200 ppm [4]
"Cc1nc(C2CCN(C(=O)c3cc(C#N)c(-c4ccc(C(F)(F)F)cc4)cc3C(F)(F)F)CC2)no1 [Compound P1.1, 5-[4-(5-Methyl-1,2,4-oxadiazol-3-yl)piperidine-1-carbonyl]-4-(trifluoromethyl)-2-[4-(trifluoromethyl)phenyl]benzonitrile]",≥ 80%,–,–,–
"CCOc1cc(-c2ccc(C(F)(F)F)cc2)c(C#N)cc1C(=O)N1CCC(CSCC)CC1 [Compound P1.46, 4-Ethoxy-5-[4-(ethylsulfanylmethyl)piperidine-1-carbonyl]-2-[4-(trifluoromethyl)phenyl]-benzonitrile]",≥ 80%,–,–,–
"N#Cc1cc(C(=O)N2CCN(c3ncc(Cl)cc3Cl)CC2)c(C(F)(F)F)cc1-c1ccc(C(F)(F)F)cc1 [Compound P2.1, 5-[4-(3,5-Dichloro-2-pyridyl)piperazine-1-carbonyl]-4-(trifluoromethyl)-2-[4-(trifluoromethyl)phenyl]benzonitrile]",≥ 80%,≥ 80%,≥ 80%,≥ 80%
"CCOc1cc(-c2ccc(C(F)(F)F)cc2)c(C#N)cc1C(=O)N1CCN(c2ncc(Cl)cc2Cl)CC1 [Compound P2.5, 5-[4-(3,5-Dichloro-2-pyridyl)piperazine-1-carbonyl]-4-ethoxy-2-[4-(trifluoromethyl)-phenyl]-benzonitrile]",≥ 80%,–,≥ 80%,≥ 80%
"CCC[S+]([O-])CC1CN(C(=O)c2cc(C#N)c(-c3ccc(C(F)(F)F)cc3)cc2C(F)(F)F)C1 (stereo not shown) [Compound P3.7, 5-[3-(Propylsulfinylmethyl)azetidine-1-carbonyl]-4-(trifluoromethyl)-2-[4-(trifluoromethyl)phenyl]-benzonitrile]",≥ 80%,–,–,–
"CCCSCC1CN(C(=O)c2cc(C#N)c(-c3ccc(C(F)(F)F)cc3)cc2C(F)(F)F)C1 [Compound P3.9, 5-[3-(propylsulfanylmethyl)azetidine-1-carbonyl]-4-(trifluoromethyl)-2-[4-(trifluoromethyl)-phenyl]benzonitrile]",≥ 80%,–,–,–
Cc1nc(C2CCN(C(=O)c3cc(C#N)c(-c4ccc(C(F)(F)F)cc4)c(C#N)c3C)CC2)no1 [Compound P6.1],≥ 80%,–,–,–
"NC(=S)c1cc(C(=O)N2CCN(c3ncc(Cl)cc3Cl)CC2)c(C(F)(F)F)cc1-c1ccc(C(F)(F)F)cc1 [Compound P8.1, 5-[4-(3,5-Dichloro-2-pyridyl)piperazine-1-carbonyl]-4-(trifluoromethyl)-2-[4-(trifluoromethyl)phenyl]benzenecarbothioamide]",≥ 80%,≥ 80%,≥ 80%,≥ 80%
